Consider 2 molecules from US11149017B2, “Solid state forms of apalutamide” (WATSON LABORATORIES INC., priority 2016, dated 2021).

Series [1] is described as follows: Bulk density and tapped (tap) density of powder. In kind it is physicochemical. The following applies: as compared to form A of Apalutamide. From the text:
Bulk density as used in the present application is meant the ratio between mass (weight) and bulk volume for the powder blend. Tapped (tap) density is the maximum packing density of a powder (or blend of powders) achieved under the influence of well defined, externally applied forces. The minimum packed volume thus achieved depends on a number of factors including particle size distribution, true density, particle shape and cohesiveness due to surface forces including moisture. Therefore, the tap density of a material can be used to predict both its flow properties and its compressibility. These two parameters are important in the overall tableting process—which requires that loose powders be compacted into a durable solid form with the correct mechanical strength, porosity and dissolution characteristics—and in capsule filling performance.

Series [2] in a line: Solubility Study (aqueous buffers, dissolution apparatus, LC analysis). In kind it is physicochemical. The following applies: compared to other crystalline forms of Apalutamide, e.g. crystalline form B. How it is done: Solubility of Apalutamide was checked using Dissolution apparatus (Lab India D8000) at 37 deg.
Buffers pH. 1.2, 4.5 and 6.8 were prepared as per the USP 36 Solutions/Buffer Solutions 1209.
About 500 mg of Apalutamide were added to the 100 mL buffer (pH 1.2, 4.5 and 6.8) in individual flasks to obtain saturated suspension and the suspension was stirred with 250 rpm for 24 hours. Suspension was observed though out stirring period. Samples were drawn at different intervals on completion of 15 mins, 1 hrs, 4 hrs and 24 hrs from each flask and filtered through 0.45μ PTFE filter; each solution was analyzed for Apalutamide content by liquid chromatography.

As to `CNC(=O)c1ccc(N2C(=S)N(c3cnc(C#N)c(C(F)(F)F)c3)C(=O)C23CCC3)cc1F` [form T13, Apalutamide], in series [1], the bulk density result is reported as “higher bulk density” and the tap density result is reported as “higher tap density”.
In the case of `CNC(=O)c1ccc(N2C(=S)N(c3cnc(C#N)c(C(F)(F)F)c3)C(=O)C23CCC3)cc1F` [form T11, Apalutamide], in series [2], the aqueous solubility entry is “higher aqueous solubility”.
